{
  "source": "paper PMC11476552",
  "about": "“Synthesis and Preliminary Studies for In Vitro Biological Activity of Two New Water-Soluble Bis(thio)carbohydrazones and Their Copper(II) and Zinc(II) Complexes” (International Journal of Molecular Sciences, 2024)",
  "key": {"[1]": {"assay": "Zn(II) complex formation equilibria, spectrophotometric titration at pH 7.4", "format": "physicochemical", "details": "for Log β([Zn2L]) / Log β([ZnL]): conditional formation constant, aqueous 25 mM HEPES buffer, pH 7.4, 25 °C", "description": "The best fit was obtained using a speciation model that consists of the sequential formation of a monometallic [ZnL] and a bimetallic [Zn2L] species. In fact, two families of spectra were observed, according to the presence in solution of two complex species and the free ligand. The first family of spectra (Zn/L = 0–1) (Figure S25) is characterized by a decrease in intensity for the bands of the free ligand at 239, 315, and 450 nm, and the appearance of bands at 251 and 394 nm. There are four isosbestic points at 245, 280, 371, and 429 nm. The second family of spectra (Zn/L = 1–2) (Figure S26) presents redshift and increase in absorbance of the band at 251 nm, the disappearance of the band at 349 nm, and redshift with decrease of absorbance of the band at 394 nm. […] The log β values for the formation of Zn(II) complexes with Na2H4L^1 · 5.5 H2O can be estimated (Table 4), and a representative distribution diagram is reported in Figure S27.\nThe spectra are characterized by four bands at ca. 238, 255, 305, and 371 nm, with those at 255 and 371 nm increasing in intensity with the addition of metal ions. The presence of these separated absorption bands led to the observation of three apparent isosbestic points at 243, 276, and 345 nm. Analogously to the Zn(II)/bis-thiocarbohydrazone system, the best fit was obtained using a speciation model that consists of the sequential formation of a monometallic [ZnL] and a bimetallic [Zn2L] species. In Figure 8, the absorbance values at 307 nm as a function of the equivalents of added Zn(II) are reported. The absorbance trend presents two almost linear regions between 0 and 1 eq. of Zn(II) and between 1 and 2 eq., respectively. This is, in fact, consistent with the sequential formation of two species with Zn:L ratios of 1:1 and 2:1, respectively. […] This behaviour is, perhaps, to be expected, taking into account the softer nature of the thiocarbohydrazonic group.\nSamples used for the study of protonation equilibria of the ligands were prepared as follows. […] For each solution, the absorption spectrum was collected in the 220–600 nm range at 298.2 K. The spectral data collection was carried out immediately after the preparation of the samples and repeated after 3 and 10 min for all the samples at different pH values to check the stability of the ligand. […] The complex formation equilibria at pH 2.5 or 7.4 of bis-TCH and bis-CH with Cu(II) and Zn(II) ions were studied by direct spectrophotometric titrations of solutions of the ligands with the metal ions, and the samples were prepared as follows. Appropriate aliquots of the stock solutions of the ligands were diluted in a quartz cuvette of 1 cm path length using HEPES buffer (pH 7.4) or by adding HCl aqueous solution (pH 2.5) to obtain ca. 17 µM ligand solutions in a total volume of 2.6 mL. The obtained ligand solutions were titrated with Cu(II) or Zn(II) titrant solutions (ca. 442 µM) up to a metal/ligand ratio of 3 for the studies at pH 7.4 and up to a Cu(II):ligand ratio of 5 (for Na2H4L^1 · 5.5 H2O) and 7 (for Na2H4L^2 · 5 H2O) for the studies at pH 2.5. […]\nThe logarithms of the apparent stability constants were calculated from the spectral dataset using HypSpec2014 software. […] All equilibria were studied at fixed pH, and therefore the determined log β values are logarithms of conditional formation constants. […] Speciation diagrams were calculated using the Hyss2009 software. […]"}, "[2]": {"system": "U937 cells", "assay": "Antiproliferative activity, trypan blue cell count, U937", "format": "cell-based", "details": "for GI50: Homo sapiens, U-937, U937, 72 h", "description": "(§1) We have started to investigate the antiproliferative profile of the ligands and of the complexes C1–C4 using a normal fibroblast cell line (Hs27) and a leukaemia cell line (U937), an in vitro cell model system systematically used to validate the toxicological profile of new potential anticancer agents. For the cytotoxicity assay, we treated Hs27 and U937 cells with five different concentrations of compound, ranging from 12.5 to 100 µg/mL, for 24, 48, and 72 h.\n(§2) U937 cells (ATCC, CRL-1593.2) were obtained from the American Tissue Culture Collection (Rockville, MD, USA) and were cultured in Roswell Park Memorial Institute Medium (RPMI-1640) (Euroclone, Italy); Hs27 cells (ATCC, CRL1634) were grown in DMEM. Both media were supplemented with 10% (v/v) foetal bovine serum (Euroclone, Italy), 1% L-glutamine (2 mM) (Euroclone, Italy), and 1% penicillin (100 U/mL)/streptomycin (100 µg/mL) (Euroclone, Italy), added with 10% (v/v) foetal bovine serum (Euroclone, Italy), 1% L-glutamine (2 mM) (Euroclone, Italy), and 1% penicillin (100 U/mL)/streptomycin (100 µg/mL) (Euroclone, Italy). Flasks were maintained at 37 °C and 5% CO2 in a humidified atmosphere. Cultures media were refreshed every two or three days during sub-culturing.\nThe antiproliferative activity of the ligands and the complexes C1–C4 was evaluated in vitro on U937 and Hs27 cell lines. In the exponential growth phase, cells were seeded at 5 × 10^4/mL into 12-well flat-bottom microplates. Cells were cultured in complete medium supplemented with 10% FBS, 1% L-glutamine, and 1% penicillin/streptomycin at 37 °C, 5% CO2. After seeding, different concentrations of compounds in the range from 0 to 100 µg/mL in a sterile 1X PBS solution were added to the wells and incubated for 24, 48, and 72 h. A negative control was obtained by treating cells with 1X PBS. To detect whether the treatments caused a defect in cell viability, following 24, 48, and 72 h treatments with the compounds, cells were stained with trypan blue (TB, 0.4%) (Gibco™, Thermofisher Scientific, Waltham, MA, USA). Two independent experiments were performed, and a Bürker chamber was used for cell counts. The GI50 value, i.e., the concentration causing a 50% reduction in the cell number in comparison with control cells, was calculated taking into account the guidelines of the US National Cancer Institute (NCI). Values are reported as the mean of the GI50 calculated on two independent experiments."}, "[3]": {"system": "Hs27 cells", "assay": "Antiproliferative activity, trypan blue cell count, Hs27", "format": "cell-based", "details": "Hs27, up to 100 µg/mL, 24-72 h", "description": "as §1\nas §2, with “Cultures media were refreshed every two or three days during sub-culturing.” left out\nThe antiproliferative activity of the ligands and the complexes C1–C4 was evaluated in vitro on U937 and Hs27 cell lines. […] Values are reported as the mean of the GI50 calculated on two independent experiments."}},
  "note": "Several values for one entry are separate records, joined by “and”; a condition that tells them apart may be missing. Identical values can stand only once.",
  "data": [
    {"smiles": "COc1cc(S(=O)(=O)[O-])cc(/C=N/NC(=S)N/N=C/c2cc(S(=O)(=O)[O-])cc(OC)c2O)c1O.[Na+].[Na+]", "note": "[bis-TCH, Bis-(sodium 3-methoxy-5-sulfonate-salicylaldehyde)-thiocarbohydrazone]", "values": [
      {"measurement": "Log β([Zn2L])", "setting": "[1]", "value": "15.29(10)"},
      {"measurement": "Log β([ZnL])", "setting": "[1]", "value": "8.40(6)"},
      {"measurement": "higher stability of Zn(II) complexes versus Na2H4L^2 · 5 H2O (difference in log β, both species)", "setting": "[1]; pH 7.4, [ZnL] and [Zn2L]", "value": "ca. 1.5 log units"},
      {"measurement": "GI50", "setting": "[2]", "value": "98 µg/mL and 144 µM"},
      {"measurement": "reduction in cell viability", "setting": "[2]; U937, highest dose, 72 h", "value": 50, "unit": "%"}
    ]},
    {"smiles": "COc1cc(S(=O)(=O)[O-])cc(/C=N/NC(=O)N/N=C/c2cc(S(=O)(=O)[O-])cc(OC)c2O)c1O.[Na+].[Na+]", "note": "[bis-CH, Bis-(sodium 3-methoxy-5-sulfonate-salicylaldehyde)-carbohydrazone]", "values": [
      {"measurement": "Log β([Zn2L])", "setting": "[1]", "value": "13.61(4)"},
      {"measurement": "Log β([ZnL])", "setting": "[1]", "value": "7.08(3)"},
      {"measurement": "cytotoxic effect (in words)", "setting": "[3]", "value": "did not produce a reduction in cell viability"},
      {"measurement": "GI50", "setting": "[2]", "value": "46.5 µg/mL and 71.8 µM"},
      {"measurement": "cytotoxic effect (in words)", "setting": "[2]; U937, up to 100 µg/mL, 24-72 h", "value": "mild antiproliferative activity"}
    ]}
  ]
}
